Results as given in patent US20140011822A1, “METHODS AND MATERIALS FOR REDUCING VENOUS STENOSIS FORMATION OF AN ARTERIOVENOUS FISTULA OR GRAFT” (priority 2011, published 2014).

How the values were obtained:
[1] = test system: apoptosis at the outflow vein; assay: TUNEL staining of outflow vein, simvastatin; assay type: in vivo, mice; conditions: for average increase of TUNEL staining: vs control
Experimental: TUNEL staining was performed on paraffin-embedded sections from the outflow vein after treatment with either simvastatin or controls as specified by the manufacturer (DeadEnd Colorimetric tunnel assay system, G7360, Promega, Madison, Wis.).
(§1) Morphometric analysis was performed as described elsewhere (Misra et al., Kidney Int., 68:2890-2900 (2005); and Misra et al., Am. J. Physiol. Heart Circ. Physiol., 294:H2219-2230 (2008)). Briefly, the outflow vein was sectioned into multiple contiguous 4-μm paraffin embedded sections. Typically, 2 to 3 sections per animal for each group (simvastatin and controls) and time point (day 14 and day 28) were photographed and then quantified using KS 400 (Carl Zeiss, Inc., Thornwood, N.Y.) semiquantitative program.

Ki-67 = Ki-67 staining of outflow vein, simvastatin; assay type: in vivo, mice; conditions: vs control
Experimental: (§2) Multiple serial four-micrometer sections were stained and analyzed. Cellular proliferation was determined by staining for Ki-67 on sections removed from the outflow vein for simvastatin treated vessels or control groups. Smooth muscle density (α-SMA) or proliferation index (Ki-67) was determined by staining on sections removed from the outflow vein by performing quantification at the different time points. Immunohistochemistry for Ki-67 and α-SMA was performed on paraffin-embedded sections from the outflow vein after transfection with either simvastatin or controls using the Vectastain Elite ABC system (Vector Laboratories, Burlingame, Calif., USA). The following antibodies were used: mouse monoclonal antibody Ki-67 (DAKO, Carpentaria, Calif.; 1:400) or rabbit polyclonal antibody to mouse for α-SMA (Abcam, Cambridge, Mass.; 1:400).
as §1

α-SMA [2] = assay: α-SMA staining of outflow vein, simvastatin; assay type: in vivo, mice; conditions: for average reduction of α-SMA density: vs control
Experimental: as §2, §1

CTGF = assay: RT-PCR for CTGF at outflow vein, simvastatin; assay type: in vivo, mice; conditions: day 14
Experimental: Animals were housed at 22° C. temperature, 41% relative humidity, and 12-/12-hour light/dark cycles. Animals were allowed access to water and food ad libitum. […] Sixty-eight male C57BL/6 mice (Jackson Laboratories, Bar Harbor, Me.) weighing 25-30 grams were used for the present study (FIG. 18). Chronic kidney disease was created by surgical removal of the right kidney accompanied by ligation of the arterial blood supply to the upper pole of the left kidney as described elsewhere (Misra et al., J. Vasc. Interv. Radiol., 21:1255-1261 (2010); see, also, FIG. 18A). Three weeks after nephrectomy, the animals were started on simvastatin (40 mg/kg administered i.p. three times per week) or PBS (equal amount of volume used for simvastatin i.p. controls). Simvastatin was prepared as described elsewhere (Wilson et al., Arterioscler Thromb. Vasc. Biol., 21:122-128 (2001)). […] Serum BUN and creatinine were measured by removing blood from the tail vein at baseline (before nephrectomy), at AVF creation, and at the time of sacrifice. […]
Expression for the gene of interest was determined using RT-PCR analysis as described elsewhere (Misra et al., J. Vasc. Interv. Radiol., 21:1255-1261 (2010)). […]

HIF-1α = assay: RT-PCR for HIF-1α at outflow vein, simvastatin; assay type: in vivo, mice; conditions: for average reduction of HIF-1α gene expression: vs control
Experimental: Animals were housed at 22° C. temperature, 41% relative humidity, and 12-/12-hour light/dark cycles. Animals were allowed access to water and food ad libitum. […] Sixty-eight male C57BL/6 mice (Jackson Laboratories, Bar Harbor, Me.) weighing 25-30 grams were used for the present study (FIG. 18). Chronic kidney disease was created by surgical removal of the right kidney accompanied by ligation of the arterial blood supply to the upper pole of the left kidney as described elsewhere (Misra et al., J. Vasc. Interv. Radiol., 21:1255-1261 (2010); see, also, FIG. 18A). Three weeks after nephrectomy, the animals were started on simvastatin (40 mg/kg administered i.p. three times per week) or PBS (equal amount of volume used for simvastatin i.p. controls). Simvastatin was prepared as described elsewhere (Wilson et al., Arterioscler Thromb. Vasc. Biol., 21:122-128 (2001)). A week later, an AVF was created by connecting the right carotid artery to the ipsilateral jugular vein (FIG. 18B; see, also, Misra et al., J. Vasc. Interv. Radiol., 21:1255-1261 (2010) and Yang et al., J. Vasc. Interv. Radiol., 20:946-950 (2009)). Animals were sacrificed at day 7, day 14, and day 28 following AVF placement for real time polymerase chain reaction (RT-PCR) and histomorphometric analyses (FIG. 18C). Serum BUN and creatinine were measured by removing blood from the tail vein at baseline (before nephrectomy), at AVF creation, and at the time of sacrifice. […] These animals were started on simvastatin (40 mg/kg i.p.) or PBS (equal amount of volume i.p.) every other day one week before AVF placement and then sacrificed four weeks after fistula placement for histomorphometric analysis.
The tissue was stored in RNA stabilizing reagent (Qiagen, Gaithersburg, Md.) as per the manufacturer's guidelines. To isolate the RNA, the specimens were homogenized, and total RNA was isolated using RNeasy mini kit (Qiagen) (Misra et al., J. Vasc. Interv. Radiol., 21:1255-1261 (2010); and Yang et al., J. Vasc. Interv. Radiol., 20:946-950 (2009)).
Expression for the gene of interest was determined using RT-PCR analysis as described elsewhere (Misra et al., J. Vasc. Interv. Radiol., 21:1255-1261 (2010)). Commercial PCR primers for the gene of interest were purchased from SA Biosciences (Frederick, Md.).

[3] = test system: hypoxic changes in the outflow vein; assay: Hypoxyprobe staining of outflow vein, simvastatin; assay type: in vivo, mice; conditions: for average reduction of hypoxyprobe staining: vs control
Experimental: Hypoxic changes were assessed in the outflow vein of simvastatin treated vessels or control groups using Hypoxyprobe™-1 (EMD Millipore, Billerica, Mass.), a substituted derivative of pimonidazole hydrochloride. Hypoxyprobe™-1 upon activation forms stable covalent adducts with thiol groups of polypeptides and amino acids of hypoxic tissue. Mice were injected with 60 mg/kg Hypoxyprobe™-1 i.p. Thirty minutes following injection, mice were sacrificed, and outflow veins were dissected and fixed as specified for histological analysis. Four-micrometer thick paraffin embedded sections were stained with the anti-hypoxyprobe-1 Ab as per the manufacturer's directions.

α-SMA [4] = assay: Western blot of α-SMA in NIH 3T3 cells, simvastatin; assay type: cell-based; conditions: 10 μM, 24 hours of hypoxia, vs control
Experimental: (§3) One hundred thousand NIH 3T3 cells were treated with simvastatin (1 μM, 5 μM, or 10 μM) or controls and made hypoxic for 24 hours as described elsewhere (Misra et al., J. Vasc. Interv. Radiol., 21:896-902 (2010)).
The differentiation of fibroblasts to myofibroblasts was assessed by performing Western blot analysis for α-SMA. The cultured cells were processed for Western analysis using rabbit polyclonal antibody as described elsewhere (Misra et al., J. Vasc. Interv. Radiol., 19:252-259 (2008)).

α-SMA [5] = assay: Confocal microscopy for α-SMA plus phalloidin in NIH 3T3 cells, simvastatin; assay type: cell-based
Experimental: as §3

NIH 3T3 cells [6] = assay: Cell migration (matrigel invasion) assay in NIH 3T3 cells, simvastatin; assay type: cell-based
Experimental: as §3
NIH 3T3 cells were synchronized for 24 hours in serum free media. Next, one hundred thousand NIH 3T3 cells were treated with simvastatin or controls and seeded in 8-micron trans-wells that were pre-coated with low growth factor matrigel in a serum free media. The complete media was supplemented under the trans-well and incubated for 6 hours at 37° C. After 6 hours, trans-wells were washed with PBS and fixed with paraformaldehye (4% v/v). Finally, trans-wells were stained with bromophenol (0.1%) solution. The cells from upper side were removed with cotton tip applicators. The cells at bottom side were counted for analysis.

NIH 3T3 cells [7] = assay: Proliferation (thymidine incorporation) assay in NIH 3T3 cells, simvastatin; assay type: cell-based
Experimental: as §3
One hundred thousand NIH 3T3 cells were treated with simvastatin or controls and made hypoxic for 24 hours. Next, they were seeded in a 6-well plate and cultured for 24 hours in DMEM medium. After 20 hours, […] of (^3H) thymidine was added to each well. Four hours later, the cells were washed with chilled PBS, fixed with 100% cold methanol, and collected for measurement of trichloroacetic acid-precipitable for radioactivity. Experiments were repeated three times for each time point.

caspase 3 = assay: Caspase 3 activity in NIH 3T3 cells, simvastatin; assay type: cell-based; conditions: 24 hours hypoxia
Experimental: as §3
Apoptosis was assessed using an ELISA assay for caspase 3. Cellular protein was extracted from one hundred thousand cultured cells as described elsewhere (Misra et al., J. Vasc. Interv. Radiol., 21:896-902 (2010)). The enzymatic activity of caspase 3 was accessed by Caspase Glo assay (G811C, Promega, Madison, Wis.).

CCC(C)(C)C(=O)O[C@H]1C[C@@H](C)C=C2C=C[C@H](C)[C@H](CC[C@@H]3C[C@@H](O)CC(=O)O3)[C@H]21 [simvastatin]
average density of cells staining positive for TUNEL ([1]; day 14): 25.26±2.78
average increase of TUNEL staining ([1]; day 14): 366%
average density of cells staining positive for TUNEL ([1]; day 28): 30.17±1.8
average increase of TUNEL staining ([1]; day 28): 561%
increase of TUNEL staining ([1]; day 28 normal, vs control (P=0.0136)): 326%
average reduction of Ki-67 density (Ki-67; day 14): 66%
average reduction of Ki-67 density (Ki-67; day 28): 76%
average reduction of Ki-67 density (Ki-67; day 28 normal): 77%
average α-SMA density (α-SMA [2]; day 14): 24±1.2
average reduction of α-SMA density (α-SMA [2]; day 14): 46%
average α-SMA density (α-SMA [2]; day 28): 8.4±1.6
average reduction of α-SMA density (α-SMA [2]; day 28): 87%
average α-SMA density (α-SMA [2]; day 28 normal): 28.4±1.6
average reduction of α-SMA density (α-SMA [2]; day 28 normal): 32%
mean gene expression of CTGF (CTGF): 0.29±0.05
average reduction of CTGF gene expression (CTGF; vs control): 45%
mean gene expression of HIF-1α (HIF-1α; day 7): 0.45±0.12
average reduction of HIF-1α gene expression (HIF-1α; day 7): 54%
mean gene expression of HIF-1α (HIF-1α; day 14): 0.34±0.04
average reduction of HIF-1α gene expression (HIF-1α; day 14): 54%
average density of hypoxyprobe staining ([3]; day 14): 18.33±2.06
average reduction of hypoxyprobe staining ([3]; day 14): 53%
average density of hypoxyprobe staining ([3]; day 28): 13.01±4.62
average reduction of hypoxyprobe staining ([3]; day 28): 70%
reduction of hypoxyprobe staining ([3]; day 28 normal, vs control (P=0.0103)): 72%
Average reduction in α-SMA production (Western blot) (α-SMA [4]): 56%
average reduction in α-SMA plus phalloidin staining (α-SMA [5]; 5 μM, 24 hours of hypoxia): 52%
average reduction in α-SMA plus phalloidin staining (α-SMA [5]; 5 μM, 24 hours of normoxia): 62%
average reduction in α-SMA plus phalloidin staining (α-SMA [5]; 10 μM, 24 hours of hypoxia): 82%
average reduction in α-SMA plus phalloidin staining (α-SMA [5]; 10 μM, 24 hours of normoxia): 94%
average reduction of migratory capacity (NIH 3T3 cells [6]; 5 μM, 24 hours hypoxia): 47%
average reduction of migratory capacity (NIH 3T3 cells [6]; 5 μM, 24 hours normoxia): 32%
average reduction of migratory capacity (NIH 3T3 cells [6]; 10 μM, 24 hours hypoxia): 62%
average reduction of migratory capacity (NIH 3T3 cells [6]; 10 μM, 24 hours normoxia): 50%
average reduction in proliferative ability (NIH 3T3 cells [7]; 5 μM, 24 hours hypoxia): 83%
average reduction in proliferative ability (NIH 3T3 cells [7]; 5 μM, 24 hours normoxia): 75%
average reduction in proliferative ability (NIH 3T3 cells [7]; 10 μM, 24 hours hypoxia): 92%
average reduction in proliferative ability (NIH 3T3 cells [7]; 10 μM, 24 hours normoxia): 94%
average increase in caspase 3 activity (caspase 3; 5 μM): 281%
average increase in caspase 3 activity (caspase 3; 10 μM): 1103%
